Holding throughout (type): in vivo
In data set [1] the test system is maize. As to the kind of experiment: Field trials in Brazilian maize: crop response (phytotoxicity) after foliar spray. Particulars: 125 g a.i./ha, two foliar applications, Brazil field trials, assessed 14 - 28 days after second application, 5 trials. How it is done: (§1) In 2017/2018 five field trials in maize were conducted in order to study the effect of compounds of formula (I) and standard azole-type fungicides regarding disease control against leaf diseases and crop safety.
(§2) The trials were done under practical field conditions in Brazil in the Safrinha season with the commercially available maize varieties P30F53 Pioneer, P30F53 RR - Roundup Ready® Pioneer, P30F53YHV Pioneer, DKB 390 Dekalb® and DKB 390 IPRO3 Dekalb®.
(§3) These trials were conducted in the following federal states in Brazil: Goias, Mato Grosso, Minas Gerais, Parana and Sao Paulo.
(§4) The tested compounds / reference products, their respective formulation type and rates of application [g a.i./ha] Tab.1: Products, formulations and rates.
(§5) The products were sprayed twice in sequential, foliar applications at growth stages BBCH EC 39 - 55 and BBCH EC 51 - 69 with a spray interval of about 2 weeks with backpack or bicycle applicators.
(§6) The water quantity for the applications was 150 l / ha.
(§7) About 14 - 28 days after the second application crop response and disease control were assessed visually by rating the damaged leaves or plant parts.

In data set [2] the test system is Cercospora zeae maydis. The data set can be described thus: Field trials in Brazilian maize: disease control (Abbott efficacy) after foliar spray. Particulars: 125 g a.i./ha, two foliar applications, Brazil, 2 trials; untreated control 40 % disease severity. As for the experimental part:
as §1, §2, §3, §4, §5, §6, §7
(§8) The efficacy against the pathogens listed in table 2 was calculated according to Abbott's formula: Efficacy (%) = (X−Y)/X × 100, [formula] wherein X is the disease severity in the control and Y is the disease severity in the treatment, and is shown in table 2 [%].

For data set [3], the system named is Helminthosporium spp. Described as above. Particulars: 125 g a.i./ha, two foliar applications, Brazil, 3 trials; untreated control 22 % disease severity. How it is done:
as §1, §2, §3, §4, §5, §6, §7, §8

In data set [4] the test system is Phaeosphaeria maydis. The data set is described as above. Particulars: 125 g a.i./ha, two foliar applications, Brazil, 3 trials; untreated control 44 % disease severity. As for the experimental part: as §1, §2, §3, §4, §5, §6, §7, §8
Data set [5] has as its system Puccinia polysora. The description is as above. Particulars: 125 g a.i./ha, two foliar applications, Brazil, 1 trial; untreated control 73 % disease severity. How it is done:
as §1, §2, §3, §4, §5, §6, §7, §8

For data set [6], the system named is Puccinia sorghi. The description is as above. Particulars: 125 g a.i./ha, two foliar applications, Brazil, 2 trials; untreated control 20 % disease severity. How it is done: as §1, §2, §3, §4, §5, §6, §7, §8
Data set [7] concerns maize. As to the kind of experiment: Field trials in Brazilian maize: yield relative to untreated control. Particulars: 125 g a.i./ha, two foliar applications, Brazil, 3 trials; untreated control (43 dt/ha) = 100%. How it is done:
as §1, §2, §3, §4, §5, §6
The yield of the untreated control (43 dt/ha) is set to 100% and the yield values for the other treatments are given in percent thereof. Tab. 2: Impact of foliar applications of tested compounds on crop response, disease control and yield.

The subject of data set [8] is maize. As to the kind of experiment: Field trials in North American maize: crop response (phytotoxicity) after foliar spray. Particulars: for PTX (%): one foliar application BBCH EC 63 - 65, Canada/USA, 3 trials.
For data set [9], the system named is Cochliobolus heterostrophus. The data set can be described thus: Field trials in North American maize: disease control (Abbott efficacy) after foliar spray. Particulars: one foliar application, 1 trial, untreated control 12 % disease severity. How it is done:
(§9) In 2018 eight field trials in maize were conducted in order to study the effect of compounds of formula (I) and standard azole-type fungicides regarding disease control against leaf diseases.
(§10) The trials were done under practical field conditions in Canada and the USA with the commercially available maize varieties DKC 62-08 Dekalb®, DKC 35-88 RIB RR2 BT Dekalb®, P7958 AM RR2 LL BT (Marc Hutlet Seeds Ltd.), NK1120-3122 RR+GLU+ECB+CRW (Syngenta), P9608AM LL RR2 CRW ECB (Pioneer) and Golden Bantam (conventional variety available from various companies worldwide).
(§11) These trials were conducted in the following provinces in Canada and federal states in North America: Ontario (Canada) and Georgia, Indiana, Iowa, Michigan, Ohio (all USA).
(§12) The tested compounds / reference products, their respective formulation type and rates of application [g a.i./ha] Tab.3: Products, formulations and rates.
(§13) In table 4 details of the formulations of (1-02) used in the different trials are listed. Tab.4: Formulations of (1-02) and a tank mixed surfactant used in different trials.
(§14) The products were sprayed with one foliar application at growth stage BBCH EC 63 - 65 with a high clearance sprayer or a backpack applicator.
(§15) The water quantity for the applications varied from 150 to 300 l/ha.
(§16) About 23 - 35 days after application the disease control was assessed visually by rating the damaged leaves or plant parts.
(§17) The efficacy against the pathogens listed in table 5 was calculated according to Abbott's formula: Efficacy (%) = (X−Y)/X × 100, [formula] wherein X is the disease severity in the control and Y is the disease severity in the treatment, and is shown in table 5 [%].

Data set [10] concerns Kabatiella zeae. The description is as above. Particulars: one foliar application, 1 trial, untreated control 17 % disease severity. As for the experimental part: as §9, §10, §11, §12, §13, §14, §15, §16, §17
For data set [11], the system named is Setosphaeria turcica. The description is as above. Particulars: one foliar application, 2 trials, untreated control 18 % disease severity. How it is done:
as §9, §10, §11, §12, §13, §14, §15, §16, §17

The subject of data set [12] is maize. As to the kind of experiment: Field trials in North American maize: yield relative to untreated control. Particulars: for Yield (% of Control): one foliar application, 2 trials, untreated control (112 dt/ha) = 100%. How it is done: as §9, §10, §11, §12, §13, §14, §15
The yield of the untreated control (112 dt/ha) is set to 100% and the yield values for the other treatments are given in percent thereof Tab. 5: Impact of foliar applications of tested compounds on disease control.

Where [13] appears, read: Canada/USA field trials, 60 -125 g a.i./ha.

As to `CC(O)(Cn1cncn1)c1ccc(Oc2ccc(Cl)cc2)nc1C(F)(F)F` (centres unmarked) [(I-01), 2-[6-(4-chlorophenoxy)-2-(trifluoromethyl)-3-pyridyl]-1-(1,2,4-triazol-1-yl)propan-2-ol], the “PTX (%)” value in data set [1] was 0%. For the same molecule, the “Cercospora zeae maydis (% efficacy)” value in [2] is recorded as 61%. Further, the “Helminthosporium spp. (% efficacy)” value in data set [3] was 65%. Besides, the “Phaeosphaeria maydis (% efficacy)” value in [4] turned out to be 68%. In data set [5], the “Puccinia polysora (% efficacy)” value was 76%. The “Puccinia sorghi (% efficacy)” value in data set [6] was 71%. The “Yield (% of Control)” value in data set [7] is on record as 123 % of Control.

Turning to `CC(O)(Cn1cncn1)c1ccc(Oc2ccc(Br)cc2)nc1C(F)(F)F` (centres unmarked) [(I-02), 2-[6-(4-bromophenoxy)-2-(trifluoromethyl)-3-pyridyl]-1-(1,2,4-triazol-1-yl)propan-2-ol], the “PTX (%)” value in data set [1], in data set [8] (60 g a.i./ha (100 EC or 250 SC)) and in data set [8] (125 g a.i./ha (100 EC or 250 SC)) was 0% throughout. Also, the “Cercospora zeae maydis (% efficacy)” value in data set [2] came out at 70%. Moreover, the “Helminthosporium spp. (% efficacy)” value in data set [3] is on record as 63%. For the same molecule, the “Phaeosphaeria maydis (% efficacy)” value in data set [4] is 64%. The “Puccinia polysora (% efficacy)” value in [5] was determined as 74%. Further, in [6], the “Puccinia sorghi (% efficacy)” value is on record as 68%. For the same molecule, the “Yield (% of Control)” value was 112 % of Control in data set [7], 120 % of Control in [12] (60 g a.i./ha) and 115 % of Control in data set [12] (125 g a.i./ha). The “crop safety (conclusion in words)” value in [8] (setting [13]) is reported as “completely safe on the crop”. Moreover, the figures for the “Cochliobolus heterostrophus (% efficacy)” value in [9] (60 g a.i./ha) and in data set [9] (125 g a.i./ha) were 91% and 97%, respectively. The “Kabatiella zeae (% efficacy)” value in data set [10] (60 g a.i./ha) is reported as 89%; in data set [10] (125 g a.i./ha) it was 95%. Further, the “Setosphaeria turcica (% efficacy)” value is recorded as 57% in [11] (60 g a.i./ha) and 61% in data set [11] (125 g a.i./ha). Besides, in data set [12] (setting [13]), the “impact on yield (conclusion in words)” value is “positive impact on yield”.

(Values after patent publication EP3620052A1, “USE OF PHENOXYPYRIDINYL-SUBSTITUTED (1H-1,2,4-TRIAZOL-1-YL)ALCOHOLS FOR CONTROLLING FUNGICIDAL DISEASES IN MAIZE” (Bayer Aktiengesellschaft, priority 2018, dated 2020).)
